Measured values from patent US20090227518A1, “COMPOSITIONS AND METHODS FOR TREATING ACTIN-MEDIATED MEDICAL CONDITIONS” (The Regents of the University of Colorado, priority 2005, published 2009).

Each compound was assayed on peritoneal cellular infiltrate (assay: Thioglycolate-elicited peritoneal infiltration). Conditions: 1 mg.
Format: in vivo, mice
Method: Peritoneal lavage was performed at 24 and 48 hours (thioglycolate) or on days 1-5 (allogeneic cells). For lavage, mice were anesthetized by isoflurane inhalation and injected immediately with 5.5 ml cold PBS containing 5% FCS and 5 U/ml heparin into the peritoneal cavity. After massaging the abdomen, peritoneal fluid was recovered with an 18.5 G needle and syringe. Recovered volumes ranged from 4.5 to 5.5 ml. Red blood cells were lysed (RBC lysing buffer, BD PharMingen) and cell counts were performed with a hemocytometer. Cells were then centrifuged and the pellet was resuspended in wash buffer containing 2% BSA, 0.1% sodium azide and 0.1% EDTA. Cells were kept at 4° C. throughout the staining procedure. Cells (at least 1×10^6/polypropylene vial) were incubated with FcγRIII/II receptor blocking antibodies (Table 1) for 10 min. […] The number of cells expressing a particular marker was calculated by multiplying percentages obtained from flow-cytometry by the concentration of cells in lavage fluid.
To address the possibility that AAT affects immune cell infiltration, two models of cell emigration were examined: thioglycolate (ThG)-elicited peritoneal infiltration, and cellular infiltration due to intraperitoneal injection of MHC-incompatible fibroblasts. […] Peritoneal lavage was performed 24 and 48 hours later and cells were counted and stained with specific antibodies for FACS analysis.

Compound | cellular infiltrate
Oxidized AAT: AAT oxidized by myeloperoxidase (MPO) system; loss of activity confirmed by elastase activity assay | did not affect cellular infiltrate

What follows are compounds tested against F-actin (filamentous actin) (assay: F-actin co-sedimentation, 150,000 x g, SDS-PAGE densitometry, eight replicates). Conditions: not given.

Compound | fold increase in actin-sedimented AAT against AAT only | percentage of AAT sedimented in the presence of actin (AAT only = 100%)
α1-antitrypsin (AAT), purified from human plasma | 1.7 fold | 268%

What follows are compounds tested on F-actin (assay: F-actin filament depolymerization). Conditions: added to preformed F-actin filaments.
Format: biochemical
Method: In separate experiments (data not shown), F-actin filaments were produced and AAT was added to determine if AAT had depolymerization properties. As a control, Getsolin™, a protein that has known depolymerization properties, was added to F-actin filaments.

Compound | depolymerization of F-actin filaments
gelsolin | actively dissociate

Each compound was assayed on NF-κB (assay: IL-18-induced NF-κB expression). Conditions: induced by IL-18.
Format: cell-based
From the text: P3 inh is also known as CE-2072 or (benzyloxycarbonyl)-L-valyl-N-[1-(2-(3-methylbenzyl)-1,3,4-oxadiazolyl]carbonyl)-2-(S)-methylpropyl]-L-prolinamide. Methods of preparing P3 inh and its derivatives are disclosed in U.S. Pat. No. 5,807,829, which is incorporated by reference herein. […] A band that corresponds to IL-18-induced NF-κB was much larger than NF-κB in controls not stimulated by IL-18. […] This was an unexpected observation as these compounds are not known to interfere with NF-κB expression.

Compound | NF-κB expression
Cc1cccc(Cc2nnc(C(=O)C(NC(=O)[C@@H]3CCCN3C(=O)[C@@H](NC(=O)OCc3ccccc3)C(C)C)C(C)C)o2)c1 (stereo partly shown) [P3 inh] | reduced

These compounds were tested on HIV-1 (assay: U1 monocytic cell assay (HIV-1 p24 antigen)). Conditions: same experimental condition as in Example 7.
Method: The U1 cell line was derived from human monocytic U937 cells into which 2 copies of HIV-1 provirus were incorporated into host genome. […] U1 cells were maintained in T-175 polystyrene flasks (Falcon, Becton Dickinson, Franklin Lakes, N.J.) in medium and used when in log phase growth. Cells were counted in a hemacytometer, examined for viability by Trypan blue exclusion (>95% for all experiments) and resuspended in fresh medium at 2×10^6 per ml. Two-hundred fifty μl of cell suspension were added to wells of 24-well polystyrene tissue culture plates (Falcon), followed by the addition of medium or AAT to produce the final concentration to be tested in a volume of 450 μl. After 1.0 hr of incubation (37° C., 5% CO2), 50 μl of medium (control) or stimulus diluted in medium were added to wells to produce the final concentration of stimulus to be tested. The final culture volumes were 500 μl and contained 1×10^6 cells per ml. […]
Data are presented as means±SEM. […] For data expressed as percent change, the values for p24 in control cultures (medium alone) were subtracted from those for each culture-containing stimulus. […] Percent p24 in cultures containing stimulus and AAT were calculated by dividing the measured p24 by that present in cultures containing stimulus alone. The resultant fraction was expressed as a percent.

Compound | anti-HIV-1 effect
Cc1cccc(Cc2nnc(C(=O)C(NC(=O)[C@@H]3CCCN3C(=O)[C@@H](NC(=O)OCc3ccccc3)C(C)C)C(C)C)o2)c1 (stereo partly shown) [P3 inh] | significant anti-HIV-1 effect

The compounds below were run against porcine elastase (Sus scrofa, UniProt P00772) (assay: Elastase neutralization assay). Conditions: cleavable color-generating substrate.
Chain of porcine elastase (P00772 27-266): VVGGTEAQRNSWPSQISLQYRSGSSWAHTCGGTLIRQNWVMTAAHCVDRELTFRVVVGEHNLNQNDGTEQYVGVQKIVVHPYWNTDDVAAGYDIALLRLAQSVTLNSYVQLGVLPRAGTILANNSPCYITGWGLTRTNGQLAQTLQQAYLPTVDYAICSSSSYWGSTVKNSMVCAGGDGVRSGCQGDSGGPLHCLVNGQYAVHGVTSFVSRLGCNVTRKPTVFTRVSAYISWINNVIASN
Format: biochemical
Method: The anti-serine protease function of AAT was examined for its role in the inhibitory effects on HIV-1. AAT was modified to reduce its serine protease inhibitory function to undetectable levels. Quantitation of the anti-protease activity of AAT was determined using an elastase neutralization assay. In this assay porcine elastase was incubated with a cleavable substrate. Upon cleavage of the substrate by elastase, a color-generating product was released, which was quantitated using a spectrophotometer. […] The inactivated AAT was then added to U1 cells, which was then stimulated with IL-18 and compared to native AAT.

Compound | anti-protease (elastase inhibitory) activity
Oxidized AAT: AAT oxidized by myeloperoxidase (MPO) system; loss of activity confirmed by elastase activity assay | Loss of activity

These compounds were tested on HIV-1 strain A018A (assay: not given). Conditions: alone or in combination.
Format: cell-based, human
From the text: The MAGI (Multinuclear Activation of a Galactosidase Indicator)-CCR-5 cell line is a clone derived from the HeLa cell line that expresses high levels of CD4. It has been transfected with a single integrated copy of a galactosidase gene under control of the HIV-1 long terminal repeat. β-Galactosidase is expressed upon production of HIV-1 Tat protein following one round of HIV-1 replication within the cell. The MAGI-CCR-5 cell line is derived from MAGI cells into which the CCR-5 HIV-1 co-receptor gene has been incorporated. These cells constitute an assay for early infection events and can be infected with either lymphocyte-tropic or macrophage-tropic HIV-1 strains.
Cells were cultured in polystyrene T-175 flasks in medium until cells were noted to be in log growth phase. Cells were then resuspended in fresh medium and aliquoted into 24-well polystyrene plates at 4×10^4 cells per well (1.0 ml total volume). After 24 hr incubation adherent cells were 30-40% confluent and medium was removed. Two hundred μl of fresh medium was then added to each well without (negative control) or with AAT and incubated for 1 hour. AAT diluent was added to a separate well at a volume equivalent to that of the highest concentration of AAT tested (control).
One hundred thirty TCID50 of HIV-1 and DEAE dextran in medium were added to each well. T-cell tropic HIV-1 strain A018A was used. After 2 hr incubation, medium was added to each well to adjust the final volume of each well to 500 μl. Cultures were incubated for 48 hr, which allowed infection of the MAGI-CCR-5 cells. Medium was aspirated and the cells fixed for 5.0 min at room temperature by adding 1.0 ml of a 1% formaldehyde/0.2% glutaraldehyde solution in phosphate buffered saline (PBS). Fixing solution was then aspirated and cells washed with PBS. This was followed by addition of galactosidase staining solution. Fifty minutes of incubation was followed by a blinded optical count of pigmented cells under a microscope.
The MAGI-CCR-5 cell assay evaluates early events in the HIV-1 infection process. These events include cell-surface binding and internalization, uncoating, reverse transcription and translation, protein processing and Tat activity. Binding of the tat protein to a reporter construct within the MAGI-CCR-5 cells enables quantification of these early HIV-1 events.

Compound | antiviral activity in MAGI cultures
AVFLM: short peptide homologous/analogous to the C-terminal region of AAT | active
FAFLM: short peptide homologous/analogous to the C-terminal region of AAT | active
FIIMI: short peptide homologous/analogous to the C-terminal region of AAT | active
FLFAV: short peptide homologous/analogous to the C-terminal region of AAT | active
FLFCI: short peptide homologous/analogous to the C-terminal region of AAT | active
FLFFI: short peptide homologous/analogous to the C-terminal region of AAT | active
FLFLI: short peptide homologous/analogous to the C-terminal region of AAT | active
FLFVL: short peptide homologous/analogous to the C-terminal region of AAT | active
FLFVV: short peptide homologous/analogous to the C-terminal region of AAT | active
FLMFI: short peptide homologous/analogous to the C-terminal region of AAT | active
FLMII: short peptide homologous/analogous to the C-terminal region of AAT | active
FLVFI: short peptide homologous/analogous to the C-terminal region of AAT | active
FMLLI: short peptide homologous/analogous to the C-terminal region of AAT | active
FVALM: short peptide homologous/analogous to the C-terminal region of AAT | active
FVFAM: short peptide homologous/analogous to the C-terminal region of AAT | active
FVFLA: short peptide homologous/analogous to the C-terminal region of AAT | active
FVFLM: short peptide from the C-terminal region of AAT | active
FVYLI: carboxyterminal peptide analyzed for its effect on HIV-1 | active
